Laboratory results taken from patent US7417156B2, “Orally active, antimalarial, anticancer, artemisinin-derived trioxane dimers” (Johns Hopkins University, priority 2002, dated 2008).

Tests used:
[1] = tested on: 60 cell line panel; format: cell-based
[2] = tested on: K-562; assay: NCI 60 cell line panel screen (SRB); format: cell-based, human
[3] = tested on: RPMI-8226; assay: NCI 60 cell line panel screen (SRB); format: cell-based, human
[4] = tested on: A549/ATCC; assay: NCI 60 cell line panel screen (SRB); format: cell-based, human
[5] = tested on: HOP-62; assay: NCI 60 cell line panel screen (SRB); format: cell-based, human
[6] = tested on: HOP-92; assay: NCI 60 cell line panel screen (SRB); format: cell-based, human
[7] = tested on: NCI-H23; assay: NCI 60 cell line panel screen (SRB); format: cell-based, human
[8] = tested on: NCI-H322M; format: cell-based
[9] = tested on: HCT-116; assay: NCI 60 cell line panel screen (SRB); format: cell-based, human
[10] = tested on: HT29; assay: NCI 60 cell line panel screen (SRB); format: cell-based, human
[11] = tested on: SF-268; assay: NCI 60 cell line panel screen (SRB); format: cell-based, human
[12] = tested on: SF-539; assay: NCI 60 cell line panel screen (SRB); format: cell-based, human
[13] = tested on: SNB-75; assay: NCI 60 cell line panel screen (SRB); format: cell-based, human
[14] = tested on: U251; assay: NCI 60 cell line panel screen (SRB); format: cell-based, human
[15] = tested on: MALME-3M; assay: NCI 60 cell line panel screen (SRB); format: cell-based, human
[16] = tested on: M14; assay: NCI 60 cell line panel screen (SRB); format: cell-based, human
[17] = tested on: SK-MEL-28; assay: NCI 60 cell line panel screen (SRB); format: cell-based, human
[18] = tested on: IGROVI; assay: NCI 60 cell line panel screen (SRB); format: cell-based, human
[19] = tested on: OVCAR-3; assay: NCI 60 cell line panel screen (SRB); format: cell-based, human
[20] = tested on: OVCAR-8; assay: NCI 60 cell line panel screen (SRB); format: cell-based, human
[21] = tested on: SK-OV-3; assay: NCI 60 cell line panel screen (SRB); format: cell-based, human
[22] = tested on: TK-10; assay: NCI 60 cell line panel screen (SRB); format: cell-based, human
[23] = tested on: PC-3; assay: NCI 60 cell line panel screen (SRB); format: cell-based, human
[24] = tested on: NCI/ADR-RES; assay: NCI 60 cell line panel screen (SRB); format: cell-based, human
[25] = tested on: MDA-MB231/ATCC; assay: NCI 60 cell line panel screen (SRB); format: cell-based, human
[26] = tested on: MDA-MB-435; assay: NCI 60 cell line panel screen (SRB); format: cell-based, human
[27] = tested on: BT-549; assay: NCI 60 cell line panel screen (SRB); format: cell-based, human
[28] = tested on: T-47D; assay: NCI 60 cell line panel screen (SRB); format: cell-based, human; conditions: T-47D (Breast Cancer)
[29] = mean value over the 60 cell line panel

CC1CCC2C(C)C(CC(CO)CC3OC4OC5(C)CCC6C(C)CCC(C3C)C46OO5)OC3OC4(C)CCC1C32OO4 (centres unmarked) [Compound 4, bis-trioxane primary alcohol] was tested, and the “Log10GI50 Delta” value [1] was 1.13, the “Log10GI50 Range” value [1] was 3.20 and the “Log10LC50 Delta” value ([1]; 60 cell line panel) was 0.88. The “Log10LC50 Range” value ([1]; 60 cell line panel) was 1.14, the “Log10TGI50 Delta” value ([1]; 60 cell line panel) was 2.31 and the “Log10TGI50 Range” value ([1]; 60 cell line panel) was 3.18. For the same compound, the “growth inhibition and cytotoxicity in words” value ([1]; human cancer cell lines in general) was “strongly inhibitory but not cytotoxic”, the “growth inhibition in words” value ([1]; leukemia cell line RPM 1-8226, melanoma cell line SK-MEL-5, renal cancer cell line ACHN) was “selectively and strongly inhibitory” and the “Log10GI50 MG MID” value ([1]; mean over panel) was −6.87. The “Log10LC50 MG MID” value [1, 29] was −4.26 log10M, the “Log10TGI50 MG MID” value [1, 29] was −4.87 log10M and the Log10LC50 ([2]; K-562 (Leukemia), LC50: PG=−50) was greater than −4.00 log10M. The Log10TGI50 ([2]; K-562 (Leukemia), TGI: PG=0) was greater than −4.00 log10M, the Log10GI50 ([2]; Leukemia, K-562) was −7.91 and the Log10GI50 ([3]; Leukemia, RPMI-8226) was less than −8.00. It also gave a Log10LC50 ([3]; RPMI-8226 (Leukemia), LC50: PG=−50) greater than −4.00 log10M, a Log10TGI50 ([3]; RPMI-8226 (Leukemia), TGI: PG=0) of −6.91 log10M and a Log10LC50 ([4]; A549/ATCC (Non-Small Cell Lung Cancer), LC50: PG=−50) of −4.11 log10M. The Log10TGI50 ([4]; A549/ATCC (Non-Small Cell Lung Cancer), TGI: PG=0) was −4.71 log10M, the Log10GI50 ([4]; Non-Small Cell Lung Cancer, A549/ATCC) was −7.29 and the Log10LC50 ([5]; HOP-62 (Non-Small Cell Lung Cancer), LC50: PG=−50) was −4.20 log10M. The Log10TGI50 ([5]; HOP-62 (Non-Small Cell Lung Cancer), TGI: PG=0) was −4.56 log10M, the Log10GI50 ([5]; Non-Small Cell Lung Cancer, HOP-62) was −4.92 and the Log10LC50 ([6]; HOP-92 (Non-Small Cell Lung Cancer), LC50: PG=−50) was −4.22 log10M. It also gave a Log10TGI50 ([6]; HOP-92 (Non-Small Cell Lung Cancer), TGI: PG=0) of −4.65 log10M, a Log10GI50 ([6]; Non-Small Cell Lung Cancer, HOP-92) of −6.37 and a Log10LC50 ([7]; NCI-H23 (Non-Small Cell Lung Cancer), LC50: PG=−50) of −4.49 log10M. The Log10GI50 ([7]; Non-Small Cell Lung Cancer, NCI-H23) was −7.84, the Log10LC50 ([8]; NCI-H322M (Non-Small Cell Lung Cancer), LC50: PG=−50) was −4.29 log10M and the Log10TGI50 ([8]; NCI-H322M (Non-Small Cell Lung Cancer), TGI: PG=0) was −4.63 log10M. The Log10GI50 ([8]; Non-Small Cell Lung Cancer, NCI-H322M) was −4.97, the Log10GI50 ([9]; Colon Cancer, HCT-116) was less than −8.00 and the Log10LC50 ([9]; HCT-116 (Colon Cancer), LC50: PG=−50) was −4.57 log10M. It also gave a Log10GI50 ([10]; Colon Cancer, HT29) of −7.75, a Log10LC50 ([10]; HT29 (Colon Cancer), LC50: PG=−50) greater than −4.00 log10M and a Log10TGI50 ([10]; HT29 (Colon Cancer), TGI: PG=0) of −4.67 log10M. For the same compound, the Log10GI50 ([11]; CNS Cancer, SF-268) was −5.40, the Log10LC50 ([11]; SF-268 (CNS Cancer), LC50: PG=−50) was −4.23 log10M and the Log10TGI50 ([11]; SF-268 (CNS Cancer), TGI: PG=0) was −4.63 log10M. The Log10GI50 ([12]; CNS Cancer, SF-539) was −7.05, the Log10LC50 ([12]; SF-539 (CNS Cancer), LC50: PG=−50) was −4.34 log10M and the Log10TGI50 ([12]; SF-539 (CNS Cancer), TGI: PG=0) was −4.72 log10M. The Log10GI50 ([13]; CNS Cancer, SNB-75) was −4.99, the Log10LC50 ([13]; SNB-75 (CNS Cancer), LC50: PG=−50) was −4.12 log10M and the Log10TGI50 ([13]; SNB-75 (CNS Cancer), TGI: PG=0) was −4.55 log10M. It also gave a Log10GI50 ([14]; CNS Cancer, U251) of −7.27, a Log10LC50 ([14]; U251 (CNS Cancer), LC50: PG=−50) greater than −4.00 log10M and a Log10TGI50 ([14]; U251 (CNS Cancer), TGI: PG=0) of −4.47 log10M. The Log10LC50 ([15]; MALME-3M (Melanoma), LC50: PG=−50) was −4.28 log10M, the Log10TGI50 ([15]; MALME-3M (Melanoma), TGI: PG=0) was −4.74 log10M and the Log10GI50 ([15]; Melanoma, MALME-3M) was −7.31. For the same compound, the Log10LC50 ([16]; M14 (Melanoma), LC50: PG=−50) was −4.14 log10M, the Log10TGI50 ([16]; M-14 (Melanoma), TGI: PG=0) was −4.68 log10M and the Log10GI50 ([16]; Melanoma, M14) was −5.87. For the same compound, the Log10GI50 ([17]; Melanoma, SK-MEL-28) was −4.95, the Log10LC50 ([17]; SK-MEL-28 (Melanoma), LC50: PG=−50) was −4.12 log10M and the Log10TGI50 ([17]; SK-MEL-28 (Melanoma), TGI: PG=0) was −4.54 log10M. It also gave a Log10LC50 ([18]; IGROVI (Ovarian Cancer), LC50: PG=−50) of −4.32 log10M, a Log10TGI50 ([18]; IGROVI (Ovarian Cancer), TGI: PG=0) of −4.68 log10M and a Log10GI50 ([18]; Ovarian Cancer, IGROVI) of −5.36. For the same compound, the Log10LC50 ([19]; OVCAR-3 (Ovarian Cancer), LC50: PG=−50) was −4.42 log10M, the Log10TGI50 ([19]; OVCAR-3 (Ovarian Cancer), TGI: PG=0) was −4.92 log10M and the Log10GI50 ([19]; Ovarian Cancer, OVCAR-3) was −7.68. It also gave a Log10LC50 ([20]; OVCAR-8 (Ovarian Cancer), LC50: PG=−50) of −4.03 log10M, a Log10TGI50 ([20]; OVCAR-8 (Ovarian Cancer), TGI: PG=0) of −4.69 log10M and a Log10GI50 ([20]; Ovarian Cancer, OVCAR-8) of −7.33. It also gave a Log10GI50 ([21]; Ovarian Cancer, SK-OV-3) of −4.85, a Log10LC50 ([21]; SK-OV-3 (Ovarian Cancer), LC50: PG=−50) of −4.21 log10M and a Log10TGI50 ([21]; SK-OV-3 (Ovarian Cancer), TGI: PG=0) of −4.53 log10M. The Log10GI50 ([22]; Renal Cancer, TK-10) was −6.60, the Log10LC50 ([22]; TK-10 (Renal Cancer), LC50: PG=−50) was −4.38 log10M and the Log10TGI50 ([22]; TK-10 (Renal Cancer), TGI: PG=0) was −4.81 log10M. It also gave a Log10LC50 ([23]; PC-3 (Prostate Cancer), LC50: PG=−50) of −4.34 log10M, a Log10TGI50 ([23]; PC-3 (Prostate Cancer), TGI: PG=0) of −4.89 log10M and a Log10GI50 ([23]; Prostate Cancer, PC-3) of less than −8.00. It also gave a Log10GI50 ([24]; Breast Cancer, NCI/ADR-RES) of −7.45, a Log10LC50 ([24]; NCI/ADR-RES (Breast Cancer), LC50: PG=−50) of −4.52 log10M and a Log10TGI50 ([24]; NCI/ADR-RES (Breast Cancer), TGI: PG=0) of −6.41 log10M. For the same compound, the Log10GI50 ([25]; Breast Cancer, MDA-MB231/ATCC) was −5.40, the Log10LC50 ([25]; MDA-MB231/ATCC (Breast Cancer), LC50: PG=−50) was greater than −4.00 log10M and the Log10TGI50 ([25]; MDA-MB231/ATCC (Breast Cancer), TGI: PG=0) was −4.33 log10M. It also gave a Log10GI50 ([26]; Breast Cancer, MDA-MB-435) of −7.50, a Log10LC50 ([26]; MDA-MB-435 (Breast Cancer), LC50: PG=−50) of −4.30 log10M and a Log10TGI50 ([26]; MDA-MB-435 (Breast Cancer), TGI: PG=0) of −4.78 log10M. The Log10LC50 ([27]; BT-549 (Breast Cancer), LC50: PG=−50) was −4.31 log10M, the Log10TGI50 ([27]; BT-549 (Breast Cancer), TGI: PG=0) was −4.73 log10M and the Log10GI50 ([27]; Breast Cancer, BT-549) was −7.11. For the same compound, the Log10LC50 ([28]; LC50: PG=−50) was −4.17 log10M and the Log10TGI50 ([28]; TGI: PG=0) was −4.73 log10M.
